Read-outs that look alike come from different tables or passages of the source. Marks after values point to notes of the source that are not given here.
Assays:
[1] = tested on: African American schizophrenia patients; assay: CATIE: change in total PANSS (LOCF) by SULT4A1-1 haplotype status, African Americans; format: in vivo, human; details: for Number of individuals with change in total PANSS ≦−20% (responders) / Number of individuals with change in total PANSS ≧−20% (non-responders): LOCF
Protocol: The design of the CATIE study has been described in detail by others (Lieberman et al., 2005; Stroup et al., 2003). […] A total of 738 subjects consented to provide DNA for genetic study. […] Retrospective genetic analyses, judged to be exempt from human studies requirements by an IRB, were conducted in the current study. All tested patients were studied using well established clinical endpoints comparing baseline, intermediate, and last observation carried forward (LOCF) for the PANSS scores using CATIE data. […] To remove time on drug as a variable for the CATIE trial, analysis was limited to only those patients who were randomized to a different drug following the initial washout period (drug switchers).

[2] = tested on: Caucasian schizophrenia patients; assay: CATIE: time to discontinuation for all causes by SULT4A1-1 status; format: in vivo, human
Description: The primary endpoint for the CATIE study was time to discontinuation for all causes (Lieberman et al., 2005). Thus the inventors evaluated the effect of SULT41-1 status on this important parameter.

schizophrenia patients [3] = assay: CATIE: months of successful treatment measured by the CGI scale (TMSUCC1); format: in vivo, human
Description: The CATIE clinical data set included Clinical Global Impression (CGI) Scale, an observer-provided assessment of the psychiatric health of the patient (Stroup et al., 2003; Guy 1976). Patients are rated with the CGI Scale from 1 to 7, with higher scores indicating greater severity of illness. The CATIE study provided a response variable that measured the time (in months) of successful treatment as measured by the CGI scale (“TMSUCC1” in the CATIE data).

[4] = tested on: Caucasian schizophrenia patients; assay: CATIE: hospitalization due to exacerbation of psychosis by SULT4A1-1 status; format: in vivo, human
Description: To assess if SULT4A1-1 status impacts the risk of hospitalization in Caucasians, the inventors assigned SULT4A1-1 status to each CATIE subject and evaluated hospitalization events due to exacerbation of psychosis. For this analysis, the inventors assigned a dichotomous value (positive or negative) for hospitalization status to subjects in each phase of the trial based on only the first hospitalization event for a given patient in that phase. Patients participating in Phases 1, 2, and/or 3 were included in the totals for the appropriate drug.
A Kaplan-Meier survival analysis was performed to determine whether there was a difference between the survival (hospitalization) rates for the SULT4A1-1 negative and SULT4A1-1 positive patient populations treated with each of the atypical antipsychotics. Survival plots model the fraction of the population that survived (i.e., no hospitalization event) as a function of time.

schizophrenia patients [5] = tested on: schizophrenia patients
Description: For the analyses shown in Tables 22-24, SULT4A1-1 haplotype status was assigned as describe in Example 3, and standard statistical survival analysis using Cox's proportional hazards model was used to determine the relative risk (hazard) of discontinuing drug use. The Hazard Ratio (HR) measures the risk of an event (in this case, switching or discontinuation from the drug) relative to patient exposure or status (in this case, SULT4A1-1 positive status).
As describe in Example 11, Hazard Ratio (HR) measures the risk of an event (in this case, switching or discontinuation from the drug) relative to patient exposure or status (in this case, SULT4A1-1 status).

schizophrenia patients [6] = details: Phase II; for Responders: decrease PANSS ≧20%, LOCF
[7] = tested on: unsegmented patient populations; details: cited from earlier work
[8] = SULT4A1-1 negative risperidone / SULT4A1-1 negative all other drugs
[9] = Unsegmented risperidone / Unsegmented all other drugs

Compound: Cc1nc2n(c(=O)c1CCN1CCC(c3noc4cc(F)ccc34)CC1)CCCC2 [Risperidone]
- Number of individuals with change in total PANSS ≦−20% (responders) ([1]; SULT4A1-1 negative): 7
- Number of individuals with change in total PANSS ≧−20% (non-responders) ([1]; SULT4A1-1 negative): 34
- Responders ([1]; SULT4A1-1 positive): 60%
- Number of individuals with change in total PANSS ≦−20% (responders) ([1]; SULT4A1-1 positive): 3
- Number of individuals with change in total PANSS ≧−20% (non-responders) ([1]; SULT4A1-1 positive): 2
- Time to discontinuation, mean ([2]; SULT4A1-1 negative): 11.3 Months
- Time to discontinuation, mean ([2]; SULT4A1-1 positive): 8.0*** Months
- Length of successful treatment (CGI Months), Mean (schizophrenia patients [3]; SULT4A1-1 negative): 6.88 Months
- Length of successful treatment (CGI Months), Mean (schizophrenia patients [3]; SULT4A1-1 positive): 1.76 Months
- Length of successful treatment (CGI Months), Mean (schizophrenia patients [3]; Unsegmented): 5.79 Months
- HOSP, number of patients hospitalized ([4]; SULT4A1-1 negative): 16
- HOSP, rate of hospitalization ([4]; SULT4A1-1 negative): 13%
- HOSP, number of patients hospitalized ([4]; SULT4A1-1 positive): 4
- HOSP, rate of hospitalization ([4]; SULT4A1-1 positive): 11.1%
- HOSP, rate of hospitalization ([4]; Unsegmented): 12.6%
- HOSP, number of patients hospitalized ([4]; Unsegmented, Phases 1, 2 and/or 3, first event): 20
- Kaplan-Meier: difference between survival (no hospitalization) rates of SULT4A1-1 negative and positive patients ([4]; per drug): not statistically significant
- HR, all-cause discontinuation (schizophrenia patients [5]; [8]): 0.79^a
- HR, discontinuation due to lack of efficacy (schizophrenia patients [5]; [8]): 0.88^a
- HR, all-cause discontinuation (schizophrenia patients [5]; SULT4A1-1 positive risperidone / SULT4A1-1 positive all other drugs): 1.48^a
- HR, all-cause discontinuation (schizophrenia patients [5]; [9]): 0.91^a
- HR, discontinuation due to lack of efficacy (schizophrenia patients [5]; [9]): 1.09^a
- % Responders (schizophrenia patients [6]; SULT4A1-1 Negative): 33.3%
- Nonresponders (schizophrenia patients [6]; SULT4A1-1 Negative): 8
- Responders (schizophrenia patients [6]; SULT4A1-1 Negative): 4
- % Responders (schizophrenia patients [6]; SULT4A1-1 Positive): 0%
- Nonresponders (schizophrenia patients [6]; SULT4A1-1 Positive): 1
- Responders (schizophrenia patients [6]; SULT4A1-1 Positive): 0
- Effect Size vs. FGA ([7]; first generation antipsychotics, Davis et al. (2003)): −0.25
- Effect Size vs. Placebo ([7]; meta-analysis, Leucht et al. (2009), negative = greater reduction in PANSS): −0.59
- Mean difference in total PANSS score between olanzapine and labelled drug, Meta-analysis ([7]; unsegmented populations, Leucht et al. (2009)): −1.9
